Assay results reported in article PMC5557808 (Nature Communications, 2017).
Where a SMILES comes first, the peptide text is derived from it. [ ]: non-standard residue; d: D form. The star is where a group is joined. X1 = CC[N+](CC)(CC(=O)Nc1c(C)cccc1C)Cc1cccc(C(=O)*)c1; Aha = [N-]=[N+]=NCC[C@H](N)C(=O)O

Target: T1, Leucine aminopeptidase (AP) (Sus scrofa, UniProt P15145)
T1 construct: Leucine aminopeptidase (AP; Mw = 280 kDa) from porcine kidney; purchased Sigma-Aldrich Chemie, Schnelldorf, Germany; host or cells: porcine kidney (tissue-derived)
T1 sequence (P15145 1-963): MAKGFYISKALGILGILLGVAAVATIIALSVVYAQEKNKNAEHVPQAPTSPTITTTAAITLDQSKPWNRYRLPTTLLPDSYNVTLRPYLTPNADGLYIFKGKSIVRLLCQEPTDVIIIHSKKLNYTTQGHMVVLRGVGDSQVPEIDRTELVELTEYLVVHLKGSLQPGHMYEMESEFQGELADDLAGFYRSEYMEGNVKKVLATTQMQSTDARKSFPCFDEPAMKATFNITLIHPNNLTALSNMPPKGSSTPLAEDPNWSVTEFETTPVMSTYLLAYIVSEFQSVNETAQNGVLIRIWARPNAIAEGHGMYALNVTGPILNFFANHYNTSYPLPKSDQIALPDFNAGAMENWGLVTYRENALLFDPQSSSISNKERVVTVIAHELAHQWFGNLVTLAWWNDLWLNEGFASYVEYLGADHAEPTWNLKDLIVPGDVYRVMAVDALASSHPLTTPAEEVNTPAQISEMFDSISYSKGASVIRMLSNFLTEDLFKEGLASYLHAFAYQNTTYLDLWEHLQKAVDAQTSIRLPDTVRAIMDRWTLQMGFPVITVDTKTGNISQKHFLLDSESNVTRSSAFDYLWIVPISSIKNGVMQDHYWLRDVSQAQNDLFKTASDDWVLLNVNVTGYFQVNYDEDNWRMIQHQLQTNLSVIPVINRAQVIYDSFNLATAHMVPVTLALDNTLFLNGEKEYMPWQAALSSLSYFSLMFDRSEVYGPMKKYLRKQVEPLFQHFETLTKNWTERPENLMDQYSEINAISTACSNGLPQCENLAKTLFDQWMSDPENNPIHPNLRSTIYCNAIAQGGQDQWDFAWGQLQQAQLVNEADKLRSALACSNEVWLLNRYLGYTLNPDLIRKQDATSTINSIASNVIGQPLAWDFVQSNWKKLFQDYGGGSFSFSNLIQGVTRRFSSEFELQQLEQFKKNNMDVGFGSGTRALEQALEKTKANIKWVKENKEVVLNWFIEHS
Assay: Aminopeptidase (AP) incubation
Assay type: biochemical, porcine
Conditions: AP 3.1 nM (0.87 µg/mL), 30 min, 37 °C, after 22 h with 1800 ng/mL MMP-8; LC-MS
Protocol: Leucine aminopeptidase (AP; Mw = 280 kDa) from porcine kidney dissolved in AP buffer (50 mM Tris-HCl, 1 mM CaCl2, and 150 mM NaCl at pH 7.0) was used. L-leucine-p-nitroanilide (0.125 mg/mL) was used as control substrate. For AP digestion, 1 mg of purified lyophilized peptide was diluted in 2 mL AP buffer resulting in a final concentration of 0.5 mg/mL substrate. To evaluate the impact of AP concentration on peptide cleavage, AP was added at concentrations of 0 (negative control), 0.87, 8.7, 39, and 78 µg/mL and the samples were incubated at 37 °C for 1 h. For analysis of the AP incubation time, an AP concentration of 0.87 µg/mL was used and analyzed after 10, 20 min and 1, 2, 3, and 6 h. To stop the enzyme activity, samples were kept at 95 °C for 15 min. Afterwards, HPLC analyses were performed (as described in the Supplementary Information) to analyze the relative decrease of the main peak as compared to the negative control. Further details are given in the Supplementary Methods.
MMP -9) in a concentration of 0.4 ng/µL (50 µL) were mixed with MMP -8 buffer (37 µL), detection enz yme (5 µL) and substrate (8µL; all fro m Q uic kZ yme® ). The acti vi t y was meas ur ed for 12 hours in inter vals of 10 minutes. […]
Aminopeptidase (AP) incubation
Leucine A minopeptidase (AP; M w = 280 kD a) from porcine kidney dissolved in AP buffer (50 mM Tris-HCl, 1 mM CaCl2 and 150 mM NaCl at pH 7.0) was used. L-leu cin e-p-nitroan ilide (0.125mg/ mL) was used as control substr at e. […] Fo r anal ysis of the impact of AP incubation time, the identical conditions were used (AP concentration of 0.87 µg / mL (and analyzed after 10, 20 minutes and 1, 2, 3 and 6 hours ). To stop the enzymatic activit y, sa mp les wer e kept at 95 °C for 15 minutes. A fterwards, H PLC analys es were p erformed (as descr ibed) to an al yze th e relative d ecr eas e of the ma i n pea k as co mp ared to the negative control (see […]
V(B)/(V(A)+V(B)) = 5 % to 90 % over 10 min, V(B)/(V(A)+V(B)) = 90 % for 5 min, V(B)/(V(A)+V(B)) = 90 % to 5 % over 3 min. […] UV detection was measured at 254 nm. […]

effect of additional AP incubation after complete MMP-8 cleavage: no difference
SMILES: CC[C@H](C)[C@H](NC(=O)CNC(=O)[C@H](CCC(N)=O)NC(=O)[C@@H]1CCCN1C(=O)CNC(=O)c1cccc(C[N+](CC)(CC)CC(=O)Nc2c(C)cccc2C)c1)C(=O)N[C@@H](C)C(=O)NCC(=O)N[C@@H](CCC(N)=O)C(=O)N[C@@H](CCN=[N+]=[N-])C(=O)N[C@@H](CCC(N)=O)C(=O)O [ID #1c] (X1-GPQGIAGQ[Aha]Q-OH)
